# Results taken from patent US20040248887A1, “Inhibitors of cathepsin S” (IRM LLC, priority 2003, published 2004).
# Molecular target: Cathepsin S (Homo sapiens, UniProt P25774)
# Experiment: Cathepsin S inhibition, fluorogenic peptide substrate kinetic assay
# Type: biochemical
# Conditions: Table II; Cathepsin S inhibition constant, pH5.5; read-out: Ki Cat. S
# Excerpt: “Inhibition constant”, Ki, is the dissociation constant of the enzyme-inhibitor complex, or the reciprocal of the binding affinity of the inhibitor to the enzyme. […] The inhibited rates are then fit by nonlinear regression to the following equation: [formula]
# where vo is the initial rate of substrate processing in the absence of inhibitor, v; is the initial rate of substrate processing at a concentration [I] of inhibitor, Km is the steady state Michaelis constant (Fersht, A. Structure and Mechanism in Protein Science. New York, W.H. Freeman and Company, 1999), and [S] is the concentration of competitive substrate.
# The assumption being made for the classical inhibition described above is that the free inhibitor concentration is equal to the total inhibitor concentration.
# The inhibition constant, Ki, can be determined from the apparent inhibition constant, Ki^app, for competitive inhibitors by using the following relationship: [formula]
# The optimal substrate for cathepsin S, acetyl-histidine-proline-valine-lysine-amino carbamoyl coumarin, was identified from screening a combinatorial library of fluorogenic peptide substrates (Harris, J. L., B. J. Backes, et al., Proc Natl Acad Sci USA 2000, 97(14), 7754-9). Kinetic measurements are performed in a total reaction volume of 30 μl in 384-well microtiter plates. […] The reactions are initiated by adding the substrate, acetyl-histidine-proline-valine-lysine-amino carbamoyl coumarin, to a final concentration of 50 μM. The rate of substrate hydrolysis is measured by monitoring the increase in fluorescence at an excitation wavelength of 380 nm and an emission wavelength of 450 nm that results from cleavage of the aniline bond in the substrate by the enzyme. The apparent inhibition constants for the compounds are determined from the enzyme progress curves (Kuzmic, P., K. C. Elrod, et al., Anal Biochem 2000, 286(1), 45-50) and are then used to calculate the inhibition constants for competitive inhibitors.
# Cathepsin S, sequence (P25774 115-331, species assumed): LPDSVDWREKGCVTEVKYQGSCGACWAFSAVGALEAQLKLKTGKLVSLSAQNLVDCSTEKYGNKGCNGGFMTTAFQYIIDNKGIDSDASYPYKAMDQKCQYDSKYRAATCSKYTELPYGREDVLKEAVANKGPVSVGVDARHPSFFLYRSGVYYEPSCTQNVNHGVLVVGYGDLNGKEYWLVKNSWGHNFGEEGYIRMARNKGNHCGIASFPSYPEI
row,Ki [nM],Structure (SMILES)
1,< 100,"C[C@@H](CN1CC(C)(C)c2cc(F)ccc21)NC(=O)[C@H](CC1CCCCC1)NC(=O)O[C@H]1CCOC1 [Compound 217, (S,S)-{2-Cyclohexyl-1-[2-(5-fluoro-3,3-dimethyl-2,3-dihydro-indol-1-yl)-1-methyl-ethylcarbamoyl]-ethyl}-carbamic acid (S)-tetrahydro-furan-3-yl ester]"
2,< 100,"C[C@@H](CN1CC(C)(C)c2cc(F)ccc21)NC(=O)[C@H](CC1CCCCC1)NC(=O)C1CCOCC1 [Compound 173, Tetrahydropyran-4-carboxylic acid {2-cyclohexyl-1-(S)-[2-(5-fluoro-3,3-dimethyl-2,3-dihydro-indol-1-yl)-1-(S)-methyl-ethylcarbamoyl]-ethyl}-amide]"
3,< 100,"C[C@@H](CN1CC(C)(C)c2cc(F)ccc21)NC(=O)[C@H](CC1CCCCC1)NC(=O)OC1CCOCC1 [Compound 215, (S,S)-{2-Cyclohexyl-1-[2-(5-fluoro-3,3-dimethyl-2,3-dihydro-indol-1-yl)-1-methyl-ethylcarbamoyl]-ethyl}-carbamic acid tetrahydro-pyran-4-yl ester]"
4,< 10000,"C[C@@H](CNc1ccc(OC(F)(F)F)cc1)NC(=O)[C@H](CC(C)(C)C)NC(=O)[C@H]1CCCO1 [Compound 268, Tetrahydrofuran-2-(R)-carboxylic acid {3,3-dimethyl-1-(S)-[1-(S)-methyl-2-(4-trifluoromethoxy-phenylamino)-ethylcarbamoyl]-butyl}-amide]"
5,< 10000,"CS(=O)(=O)N[C@@H](CC1CCCCC1)C(=O)NCCN1CCc2cc(F)ccc21 [Compound 249, (S)-3-Cyclohexyl-N-[2-(5-fluoro-2,3-dihydro-indol-1-yl)-ethyl]-2-methanesulfonylamino-propionamide]"
6,< 100,"COc1cccc(C(=O)N[C@@H](CC2CCCCC2)C(=O)N[C@@H](CC(=O)O)CN2CCc3cc(F)ccc32)c1 [Compound 162, 3-(S)-[3-Cyclohexyl-2-(S)-(3-methoxy-benzoylamino)-propionylamino]-4-(5-fluoro-2,3-dihydro-indol-1-yl)-butyric acid]"
7,< 1000,"COc1cccc(S(=O)(=O)N[C@@H](CC2CCCCC2)C(=O)NCCN2CCc3cc(F)ccc32)c1 [Compound 245, (S)-3-Cyclohexyl-N-[2-(5-fluoro-2,3-dihydro-indol-1-yl)-ethyl]-2-(3-methoxy-benzenesulfonylamino)-propionamide]"
8,< 100,"C[C@@H](CNc1ccc(OC(F)(F)F)cc1)NC(=O)[C@H](CC1CCCCC1)NC(=O)OC1CCS(=O)(=O)CC1 [Compound 186, (S,S)-{2-Cyclohexyl-1-[1-methyl-2-(4-trifluoromethoxy-phenylamino)-ethylcarbamoyl]-ethyl}-carbamic acid 1,1-dioxo-hexahydro-1λ^6-thiopyran-4-yl ester]"
9,< 100,"C[C@@H](CNc1ccc(OC(F)(F)F)cc1)NC(=O)[C@H](CC1CCCC1)NC(=O)OC1CCOCC1 [Compound 190, (S,S)-{2-Cyclopentyl-1-[1-methyl-2-(4-trifluoromethoxy-phenylamino)-ethylcarbamoyl]-ethyl}-carbamic acid tetrahydropyran-4-yl ester]"
10,< 100,"COc1cccc(C(=O)N[C@@H](CC(C)(C)C)C(=O)N[C@@H](CC#N)CN2CCc3cc(F)ccc32)c1 [Compound 165, N-{1-(S)-[2-Cyano-1-(S)-(5-fluoro-2,3-dihydro-indol-1-ylmethyl)-ethylcarbamoyl]-3,3-dimethyl-butyl}-3-methoxy-benzamide]"

# Further lines, the compound ahead of its results:
row,Structure (SMILES),Ki [nM]
1,"COc1cccc(C(=O)N[C@@H](CC2CCCCC2)C(=O)N[C@@H](CC(=O)OCc2ccccc2)CN2CCc3cc(F)ccc32)c1 [Compound 161, 3-(S)-[3-Cyclohexyl-2-(S)-(3-methoxy-benzoylamino)-propionylamino]-4-(5-fluoro-2,3-dihydro-indol-1-yl)-butyric acid benzyl ester]",< 100
2,"Cc1ccc(C(C)C(=O)N[C@@H](CC2CCCCC2)C(=O)NCCN2CCc3cc(F)ccc32)cc1 (stereo partly drawn) [Compound 60, N-{2-cyclohexyl-1-(S)-[2-(5-fluoro-2,3-dihydro-indol-1-yl)-ethylcarbamoyl]-ethyl}-2-p-tolyl-propionamide]",< 100
3,"COc1cccc(C(=O)N[C@@H](Cc2ccc(F)cc2)C(=O)N[C@@H](COCc2ccccc2)CN2CCc3cc(F)ccc32)c1 [Compound 37, N-[1-(S)-[1-(R)-Benzyloxymethyl-2-(5-fluoro-2,3-dihydro-indol-1-yl)-ethylcarbamoyl]-2-(4-fluoro-phenyl)-ethyl]-3-methoxy-benzamide]",< 100
4,"C[C@@H](CNc1ccc(O)cc1)NC(=O)[C@H](CC1CCCCC1)NC(=O)c1ccc(-c2cccc(F)c2)o1 [Compound 125, 5-(3-Fluoro-phenyl)-fuiran-2-carboxylic acid {2-cyclohexyl-1-(S)-[2-(4-hydroxy-phenylamino)-1-(S)-methyl-ethylcarbamoyl]-ethyl}-amide]",< 100
5,"C[C@@H](CNc1ccc(C#N)cc1)NC(=O)[C@H](CC1CCCCC1)NC(=O)c1ccc(-c2cccc(F)c2)o1 [Compound 93, 5-(3-Fluoro-phenyl)-furan-2-carboxylic acid {1-(S)-[2-(4-cyano-phenylamino)-1-(S)-methyl-ethylcarbamoyl]-2-cyclohexyl-ethyl}-amide]",< 1000
6,"COc1cccc(C(=O)N[C@@H](CCC2CCCCC2)C(=O)NCCN2CCc3cc(OCc4ccccc4)ccc32)c1 [Compound 19, (S)-N-{3-Cyclohexyl-1-[2-(5-benzyloxy-2,3-dihydro-indol-1-yl)-ethylcarbamoyl]-propyl}-3-methoxy-benzamide]",< 10000
7,"O=C(N[C@@H](CC1CCCCC1)C(=O)NCCN1CCc2cc(F)ccc21)C1CC(=O)N(Cc2ccco2)C1 (stereo partly drawn) [Compound 74, 1-Furan-2-ylmethyl-5-oxo-pyrrolidine-3-carboxylic acid (S)-{2-cyclohexyl-1-[2-(5-fluoro-2,3-dihydro-indol-1-yl)-ethylcarbamoyl]-ethyl}-amide]",< 1000
8,"CC(C)(C)C[C@H](NC(=O)OC(C)(C)C)C(=O)N[C@@H](COCc1ccccc1)CN1CCc2cc(F)ccc21 [Compound 154, {1-(S)-[1-(R)-Benzyloxymethyl-2-(5-fluoro-2,3-dihydro-indol-1-yl)-ethylcarbamoyl]-3,3-dimethyl-butyl}-carbamic acid tert-butyl ester]",< 100
9,"C[C@@H](CNc1cc(F)cc(F)c1)NC(=O)[C@H](CC1CCCCC1)NC(=O)c1ccc(-c2cccc(F)c2)o1 [Compound 87, 5-(3-Fluoro-phenyl)-furan-2-carboxylic acid {2-cyclohexyl-1-(S)-[2-(3,5-difluoro-phenylamino)-1-(S)-methyl-ethylcarbamoyl]-ethyl}-amide]",< 100
10,"CNS(=O)(=O)c1ccc(NC[C@H](C)NC(=O)[C@H](CC2CCCCC2)NC(=O)c2ccc(-c3cccc(F)c3)o2)cc1 [Compound 118, 5-(3-Fluoro-phenyl)-furan-2-carboxylic acid {2-cyclohexyl-1-(S)-[1-(S)-methyl-2-(4-methylsulfamoyl-phenylamino)-ethylcarbamoyl]-ethyl}-amide]",< 100
11,"COCCC(=O)N[C@@H](CC1CCCCC1)C(=O)N[C@@H](C)CNc1ccc(OC(F)(F)F)cc1 [Compound 123, 3-Cyclohexyl-2-(S)-(3-methoxy-propionylamino)-N-[1-(S)-methyl-2-(4-trifluoromethoxy-phenylamino)-ethyl]-propionamide]",< 100
